Data taken from ChEMBL document CHEMBL4483862, “Open-source discovery of chemical leads for next-generation chemoprotective antimalarials” (2018).

System: Plasmodium berghei
Assay: Luciferase/luciferin-expressing antifolate-resistant parasites were used to infect a culture of HepG2 cells that were pre-incubated with compounds. Infected hepatocytes emit light due to the luciferase reaction. Assay results are presented as the percent inhibition of light emission compared to control. […]
Type: functional
Settings: sporozoite; for IC90: read-out: LUCIFERASE INFECTION ASSAY - IC90
[1] = read-out: LUCIFERASE INFECTION ASSAY - IC50

SMILES | IC90 | further results
CCCNc1ccc2ncc(-c3ccc(OC)c(OC)c3)n2n1 | 2.73 µM | IC50 (HEPG2TOX_HILL_SLOPE 2.36, HEPG2TOX_R_SQUARED 0.919, PBLUC_HILL_SLOPE 2.02, PBLUC_R_SQUARED 0.782, read-out: LUCIFERASE INFECTION ASSAY - IC50): 0.918 µM
Cc1nc(-c2ccccn2)nc(N(C)Cc2ccccc2)c1Cl | 3.5 µM | IC50 (PBLUC_HILL_SLOPE 72.3, PBLUC_R_SQUARED 0.385, read-out: LUCIFERASE INFECTION ASSAY - IC50): 3.4 µM
Cc1nn(-c2ccccc2)c(C)c1CN(C)S(=O)(=O)c1ccc(C#N)cc1 | 0.36 µM | IC50 (PBLUC_HILL_SLOPE 18, PBLUC_R_SQUARED 0.548, read-out: LUCIFERASE INFECTION ASSAY - IC50): 0.318 µM
Cc1cc(C(=O)COC(=O)c2ccc3[nH]c4c(c3c2)CCCC4)c(C)n1Cc1ccccc1Cl | 4.61 µM | IC50 (PBLUC_HILL_SLOPE 2.26, PBLUC_R_SQUARED 0.534, read-out: LUCIFERASE INFECTION ASSAY - IC50): 1.74 µM
C/C(=N\Nc1c(Cl)cc(Cl)cc1Cl)c1ccc(N2CCOCC2)cc1 | > 10 µM | IC50 [1]: 4.84 µM
CC(C)NC(=O)c1c(NC(=O)c2cc(F)cc(F)c2)nc2ccccn12 | 1.12 µM | IC50 (FFLUC_HILL_SLOPE 17.9, FFLUC_R_SQUARED 0.386, HEPG2TOX_HILL_SLOPE 1.01, HEPG2TOX_R_SQUARED 0.782, PBLUC_HILL_SLOPE 15.7, PBLUC_R_SQUARED 0.648, read-out: LUCIFERASE INFECTION ASSAY - IC50): 0.969 µM
N#Cc1c(N2CCCC2)nn(C(=O)Nc2ccc(Cl)c(Cl)c2)c1N | 3.89 µM | IC50 (PBLUC_HILL_SLOPE 16.1, PBLUC_R_SQUARED 0.491, read-out: LUCIFERASE INFECTION ASSAY - IC50): 3.39 µM
CCOC(=O)C1=C(C)N(c2ccc(Cl)cc2)C(=O)NC1c1c(F)cccc1Cl (stereo not given) | > 10 µM | IC50 (FFLUC_HILL_SLOPE 0.633, FFLUC_R_SQUARED 0.184, HEPG2TOX_HILL_SLOPE 1.11, HEPG2TOX_R_SQUARED 0.991, PBLUC_HILL_SLOPE 1.36, PBLUC_R_SQUARED 0.55, read-out: LUCIFERASE INFECTION ASSAY - IC50): 3.38 µM
Cc1ccc(C)c(-c2csc(NC(=O)CCNC(=O)c3ccsc3)n2)c1 | 5.37 µM | IC50 (PBLUC_HILL_SLOPE 433, PBLUC_R_SQUARED 0.479, read-out: LUCIFERASE INFECTION ASSAY - IC50): 5.35 µM
CNc1ccccc1C(C)(C)c1cc(-c2ccc(Cl)cc2)no1 | > 10 µM | IC50 [1]: 4.84 µM
Cc1cc(C)cc(N(C(=O)C23CC4CC(CC(C4)C2)C3)C2C=CS(=O)(=O)C2)c1 (stereo not given) | > 10 µM | IC50 [1]: > 10 µM
Clc1cccc(CNc2nnnn2-c2ccccc2)c1 | > 10 µM | IC50 (PBLUC_HILL_SLOPE 2.12, PBLUC_R_SQUARED 0.274, read-out: LUCIFERASE INFECTION ASSAY - IC50): 8.09 µM
O=C(Nc1ncc(Cc2cccc(C(F)(F)F)c2)s1)c1ccc(-n2ccnc2)nc1 | 7.33 µM | IC50 (FFLUC_HILL_SLOPE 11.4, FFLUC_R_SQUARED 0.309, HEPG2TOX_HILL_SLOPE 1.14, HEPG2TOX_R_SQUARED 0.957, PBLUC_HILL_SLOPE 2.81, PBLUC_R_SQUARED 0.544, read-out: LUCIFERASE INFECTION ASSAY - IC50): 3.35 µM
COc1ccc(OCCCN2CCN(C(=O)C34CC5CC(CC(C5)C3)C4)CC2)cc1 | > 10 µM | IC50 [1]: > 10 µM
CNc1nnc(Sc2nc(CN3CCCCC3)nc3scc(-c4ccccc4)c23)s1 | 3.67 µM | IC50 (HEPG2TOX_HILL_SLOPE 0.991, HEPG2TOX_R_SQUARED 0.829, PBLUC_HILL_SLOPE 15.5, PBLUC_R_SQUARED 0.389, read-out: LUCIFERASE INFECTION ASSAY - IC50): 3.19 µM
CNC(=O)c1nn(CCc2ccccc2)c2c1CC(NCCC(C)C)CC2 (stereo not given) | > 8.95 µM | IC50 [1]: > 8.95 µM
O=C(Nc1ccc(Nc2ccccc2)cc1)c1[nH]nc2ccccc12 | > 10 µM | IC50 (PBLUC_HILL_SLOPE 16, PBLUC_R_SQUARED 0.594, read-out: LUCIFERASE INFECTION ASSAY - IC50): 8.92 µM
CC(C)(C)c1ccc(S(=O)(=O)Nc2ccc(O)c(Sc3nc4ccccc4s3)c2)cc1 | > 10 µM | IC50 (HEPG2TOX_HILL_SLOPE 0.314, HEPG2TOX_R_SQUARED 0.616, read-out: LUCIFERASE INFECTION ASSAY - IC50): > 10 µM
Cc1nc2c(C)cccn2c1C(=O)NN1C(=O)CSC1c1ccccc1 (stereo not given) | > 8 µM | IC50 [1]: 7.23 µM
Cc1cc(C(=O)CN2CCc3sccc3C2)c(C)n1Cc1cccs1 | > 10 µM | IC50 [1]: 2.21 µM

SMILES | IC90 | further results
COc1ccc(Nc2nccc3c2cc(-c2ccccc2OC)n3C)cn1 | 4.48 µM | IC50 (PBLUC_HILL_SLOPE 9.12, PBLUC_R_SQUARED 0.328, read-out: LUCIFERASE INFECTION ASSAY - IC50): 3.52 µM
COCCn1c(C)cc(C(=O)CN2C(=O)NC(C)(c3ccc(C(C)(C)C)cc3)C2=O)c1C (stereo not given) | > 10 µM | IC50 (PBLUC_HILL_SLOPE 3.36, PBLUC_R_SQUARED 0.275, read-out: LUCIFERASE INFECTION ASSAY - IC50): 6.15 µM
O=C(c1cc(C(=O)N2CCCC2)c2nc3scc(-c4ccccc4)c3c(=O)n2c1)c1ccccc1O | > 10 µM | IC50 [1]: > 10 µM
CCOC(=O)c1[nH]c2c(c1C)C(=O)/C(=C/c1ccc(Cl)cc1)CC2 | > 10 µM | IC50 [1]: > 10 µM
CC(=O)c1cccc(-c2cnc3cnc(-c4cccs4)cn23)c1 | 8.52 µM | IC50 (HEPG2TOX_HILL_SLOPE 0.197, HEPG2TOX_R_SQUARED 0.442, PBLUC_HILL_SLOPE 3.75, PBLUC_R_SQUARED 0.777, read-out: LUCIFERASE INFECTION ASSAY - IC50): 4.74 µM
O=C1OC(c2ccc(C(=O)c3ccccc3)cc2)=N/C1=C1\CCCCCN1 | > 10 µM | IC50 (HEPG2TOX_HILL_SLOPE 4.29, HEPG2TOX_R_SQUARED 0.683, PBLUC_HILL_SLOPE 20.1, PBLUC_R_SQUARED 0.207, read-out: LUCIFERASE INFECTION ASSAY - IC50): 9.14 µM
CCCn1c(N)c(C(=O)CSc2nc3sc(C)c(C)c3c(=O)n2-c2ccccc2)c(=O)[nH]c1=O | > 10 µM | IC50 [1]: > 10 µM
COc1ccc(C(=O)c2cc(C#N)c(N)n3c2nc2ccccc23)cc1 | 3.53 µM | IC50 (HEPG2TOX_HILL_SLOPE 1.32, HEPG2TOX_R_SQUARED 0.922, PBLUC_HILL_SLOPE 2.77, PBLUC_R_SQUARED 0.822, read-out: LUCIFERASE INFECTION ASSAY - IC50): 1.6 µM
CC(C)c1ccc(-c2cnc3sc(NC4CCC(O)CC4)nn23)cc1 (stereo not given) | > 9.26 µM | IC50 (PBLUC_HILL_SLOPE 11.9, PBLUC_R_SQUARED 0.449, read-out: LUCIFERASE INFECTION ASSAY - IC50): 8.25 µM
O=C(N/N=C/c1ccc([N+](=O)[O-])o1)c1ccc(CN2C(=O)c3cccc4cccc2c34)cc1 | > 10 µM | IC50 [1]: > 10 µM
O=C(O)C(CCO)Sc1nnc(Nc2ccc(Oc3ccccc3)cc2)s1 (stereo not given) | > 10 µM | IC50 (HEPG2TOX_HILL_SLOPE 1.82, HEPG2TOX_R_SQUARED 0.816, PBLUC_HILL_SLOPE 10.1, PBLUC_R_SQUARED 0.331, read-out: LUCIFERASE INFECTION ASSAY - IC50): 9.1 µM
CCc1cccc2c(/C=C(\C#N)C(=O)C(C)(C)C)c[nH]c12 | > 10 µM | IC50 (PBLUC_HILL_SLOPE 0.872, PBLUC_R_SQUARED 0.606, read-out: LUCIFERASE INFECTION ASSAY - IC50): 6.24 µM
CC(=O)Nc1cccc(-c2ccnc3c2CC(C(=O)NCc2cccs2)O3)c1 (stereo not given) | 3.24 µM | IC50 (FFLUC_HILL_SLOPE 58.8, FFLUC_R_SQUARED 0.264, HEPG2TOX_HILL_SLOPE 13.5, HEPG2TOX_R_SQUARED 0.74, PBLUC_HILL_SLOPE 13.2, PBLUC_R_SQUARED 0.157, read-out: LUCIFERASE INFECTION ASSAY - IC50): 2.74 µM
CCOc1cccc(-c2cn3c(-c4ccc(CO)cc4)cnc3cn2)c1 | 0.828 µM | IC50 (HEPG2TOX_HILL_SLOPE 0.91, HEPG2TOX_R_SQUARED 0.879, PBLUC_HILL_SLOPE 2.96, PBLUC_R_SQUARED 0.698, read-out: LUCIFERASE INFECTION ASSAY - IC50): 0.395 µM
CC1CN(C(=O)c2ccc(S(=O)(=O)Nc3ccccc3F)cc2)CC(C)O1 (stereo not given) | 5.97 µM | IC50 (PBLUC_HILL_SLOPE 1.2, PBLUC_R_SQUARED 0.687, read-out: LUCIFERASE INFECTION ASSAY - IC50): 0.955 µM
O=S(=O)(c1ccc2oc(Nc3ccc(Nc4ccccc4)cc3)nc2c1)N1CCOCC1 | > 10 µM | IC50 (FFLUC_HILL_SLOPE 13.7, FFLUC_R_SQUARED 0.693, PBLUC_HILL_SLOPE 9.99, PBLUC_R_SQUARED 0.314, read-out: LUCIFERASE INFECTION ASSAY - IC50): 9.23 µM
COc1ccc(Cl)cc1NC(=O)C(C)N1CCC(c2c[nH]c3ccccc23)CC1 (stereo not given) | 4.83 µM | IC50 (FFLUC_HILL_SLOPE 15.4, FFLUC_R_SQUARED 0.69, PBLUC_HILL_SLOPE 100, PBLUC_R_SQUARED 0.101, read-out: LUCIFERASE INFECTION ASSAY - IC50): 4.73 µM
CCCCn1c(N)c(N(CCC)C(=O)/C=C/c2cccc3cccnc23)c(=O)[nH]c1=O | 3.69 µM | IC50 (PBLUC_HILL_SLOPE 14.7, PBLUC_R_SQUARED 0.526, read-out: LUCIFERASE INFECTION ASSAY - IC50): 3.18 µM
COc1ccc(-c2cc(-c3ccc4ccccc4c3)n(C)c2-c2ccc(F)cc2)cc1 | > 8.1 µM | IC50 (FFLUC_HILL_SLOPE 0.642, FFLUC_R_SQUARED 0.523, PBLUC_HILL_SLOPE 1.6, PBLUC_R_SQUARED 0.413, read-out: LUCIFERASE INFECTION ASSAY - IC50): 2.69 µM
CN1/C(=C\C=N\NC(=O)c2cccnc2)C(C)(C)c2ccccc21 | > 10 µM | IC50 (PBLUC_HILL_SLOPE 4.32, PBLUC_R_SQUARED 0.562, read-out: LUCIFERASE INFECTION ASSAY - IC50): 7.23 µM
